Entries after “also recorded” stand apart in the source; their conditions may differ.
Legend:
[1] = system: Human oocytes arrested at GV-stage; test: Reversal of meiosis arrest after washing out the inhibitor; type: cell-based
Description: DDMP was added at a 10 μM final concentration (0.1% DMSO). Directly after aspiration, single COCs were washed in flushing medium (D-MEM with HEPES) and placed into […] droplets under oil. COCs were randomised over two culture conditions: with and without DDMP. Oocytes cultured with DDMP for 24 hours, 48 hours and 72 hours were studied for reversal of meiosis arrest by washing out the inhibitor. […]
(§1) Evaluation of cumulus morphology expansion in culture related to follicle treatment, resumption of maturation, kinetics of GVBD and polar body extrusion were analysed using the χ^2test and Fisher's exact test for comparison between control and DDMP treated groups. Statistical significance was considered when P<0.05.

[2] = system: polar body extruded oocytes; test: Confocal laser microscopy for microfilaments and chromosome analysis; type: cell-based, human
Description: For localization of microfilaments, 39 polar body extruded oocytes (25 oocytes 48 hours after maturation in control medium and 14 oocytes after inhibitor removal) were fixed with 2.5% glutaraldehyde in cacodylate buffer for at least 2 hours, washed with PBS/1% BSA, placed into 0.1% Triton X-100 for 5 min and rinsed again with PBS. Afterwards, oocytes were placed into Texas red-labeled phalloidin staining f-actin diluted 1:40 PBS for f-actin and Pico green 1:2000 PBS for DNA staining.

[3] = system: isolated oocytes; conditions: rodents; cited from earlier work
[4] = system: cumulus-corona cells of COCs; test: Cumulus cell expansion (COC types I-IV) during culture in the presence of DDMP; type: cell-based, human
Description: (§2) Patients included in this study were undergoing fertility treatment and were primed with variable doses of gonadotropins while being carefully monitored using serum hormone and vaginal ultrasound monitoring (Human Reproduction 7 (1992), 49 et seq.). Collection of oocytes cumulus complexes (COCs) from different follicle sizes was performed as follows: 1°) during laparoscopic surgery, 2°) aspirated from patients with stimulated ovaries undergoing follicle reduction before intrauterine insemination (to avoid multiple gestation due to multiple ovulation) (Albano et al, 2001) or 3°) during ovum pick up after having aspirated the larger follicles (>15 mm) destinated for IVF treatment (Human Reproduction 7 (1992), 49 et seq.). Basically, these aspirations yielded two types of COC: a first group that had never been exposed to LH activity (pre-hCG) and a second group of follicles 36 h after an exposure to hCG (injected) or endogenous LH (spontaneous LH peak). When possible, follicle diameters were recorded by vaginal ultrasound measurement. COCs used in this study were retrieved from follicles with diameters between 6 and 14 mm.
The COCs were evaluated immediately after aspiration and after 24 hours and 48 hours culture and classified as follows: type (I), compact mass of 3-5 layers of granulosa cells; type (II), expanded distal layers of granulosa cells (cumulus), but a compact proximal granulosa cell layer; type (III), expanded distal (cumulus) and proximal (corona cells) layers of granulosa cells; and type (IV) partially denuded oocytes due to expanded granulosa cells.
(§3) At the time of oocyte retrieval only the COCs classified as I or II were placed in culture.
(§4) The basal medium used for oocyte culture was D-MEM (D-5280, Life Technologies, Merelbeke, Belgium) with 2 mM Glutamax-1, NaHCO3 (2 g/L) supplemented with 10 mIU/ml FSH (Gonal-F®, kindly donated by Ares Serono, Geneva, Switzerland), 100 ng/ml IGF-I (R&D, UK), 5 ng/ml insulin, 5 ng/ml selenium, 5 μg/ml transferrin (Life technologies, Merelbeke, Belgium) and 0.1% human serum albumin (CAF-DCF, Brussels, Belgium). 17β-E2 (Sigma, Bornem, Belgium) was diluted in ethanol and added to oil to reach a final concentration of 1 μg/ml in the 10 μl medium droplets underneath (this concentration was measured using specific radioimmunoassay). Microdroplets of 10 μl medium, were covered with 2 ml of oil. A refreshment of […] conditioned medium was performed each 24 hours. All cultures were carried out at 37° C. in humidified atmosphere in an incubator gassed with 5% CO2 in air.
(§5) DDMP was added at a 10 μM final concentration (0.1% DMSO). Directly after aspiration, single COCs were washed in flushing medium (D-MEM with HEPES) and placed into […] droplets under oil. COCs were randomised over two culture conditions: with and without DDMP. Oocytes cultured with DDMP for 24 hours, 48 hours and 72 hours were studied for reversal of meiosis arrest by washing out the inhibitor. Reversal of PDE 3 inhibition was performed by mechanical denudation of the remaining somatic cells and placing the oocytes in the conditioned medium for an additional 24-30 h.
as §1

[5] = system: Human oocytes (COCs); test: Meiosis arrest (nuclear maturation stage GV/GVBD/PB) of COCs cultured with DDMP; type: cell-based; conditions: for oocytes still arrested at the GV-stage: 72 hours in DDMP
Description: as §2
Human oocytes aspiration was performed by ultrasound-guided transvaginal follicle aspiration using a single lumen needle (Cook, K-OPS-1230-VUB, Switzerland AG) after paracervical infiltration with a local anesthetic. The aspiration pressure used was reduced from the usual 100 mmHg for recovery of mature oocytes to 60 mmHg. Follicles were flushed using HEPES-buffered Earle's medium at least three times.
as §3
Twenty-four hours later, oocyte stages were recorded and oocytes showing a clear polar body extrusion were removed from culture. After 48 hours, all oocytes were assessed and GV, GVBD and polar body extruded ones were recorded.
as §4, §5, §1

[6] = system: Human oocytes (COCs); test: Light and electron microscopy of oocytes arrested by DDMP; type: cell-based
Description: During evaluation at 24 hours and 48 hours culture, part of the oocytes with and without DDMP were fixed for EM analysis.
A total of 48 oocytes (4 at time of retrieval, 21 after 24 hours, 20 after 48 hours and 3 after 72 hours culture) were fixed in glutaraldehyde 2.5% in cacodylate buffer at pH 7.3 for at least 2 hours at 4° C. at time 0 h, 24 hours and 48 hours of maturation. All oocytes were embedded individually. Afterwards, they were postfixed in OsO4 1% in H2O for 30 min, stained with uranyl acetate 2% in veronal buffer for 60 min, dehydrated through graded alcohols, embedded in SPURR (Taab; Bodson, Liège, Belgium) and left to polymerize overnight at 70° C.
Semithin sections of 0.5 μm and ultrathin sections of 75 nm were made at approximately 30 levels (range 15-35). The semithin sections were mounted on glass slides and stained with toluidine blue for light microscopical guidance. […]
In order to analyse the effect of PDE 3 inhibition on nuclear and cytoplasm organization, ultrastructural observation was performed at the different culture times in oocytes arrested or not by DDMP. The oocytes analyzed did originate from follicles with diameter between 8-12 mm.

[7] = inhibitor removal day 2 (48 hours in DDMP), post-hCG, 11 oocytes
[8] = inhibitor removal day 2 (48 hours in DDMP), pre-hCG, 11 oocytes
[9] = inhibitor removal day 3 (72 hours in DDMP), post-hCG, 10 oocytes
[10] = inhibitor removal day 3 (72 hours in DDMP), pre-hCG, 13 oocytes
[11] = post-hCG COCs, 24 hours culture in DDMP 10 μM
[12] = pre-hCG COCs, 24 hours culture in DDMP 10 μM

SMILES: COc1cc2cc(C3=NNC(=O)CC3C)sc2cc1OC (stereo not shown) [DDMP, 4,5-dihydro-6-(5,6-dimethoxybenzo[b]thien-2-yl)-5-methyl-3(2H)-pyridazinone]
- number of oocytes that progressed to GVBD after inhibitor wash-out ([1]; 48 hours in DDMP, post-hCG, 11 oocytes, 24-30 h in control medium): 11
- number of oocytes that progressed to GVBD after inhibitor wash-out ([1]; 48 hours in DDMP, pre-hCG, 11 oocytes, 24-30 h in control medium): 4
- number of oocytes that progressed to GVBD after inhibitor wash-out ([1]; 72 hours in DDMP, pre-hCG, 13 oocytes, 24 to 30 hours in conditioned medium): 7
- PB (%) 24-30 hours after DDMP removal [1, 7]: 54%
- number of oocytes at GVBD (arrested at this stage) 24-30 hours after DDMP removal [1, 7]: 5
- number of oocytes at PB 24-30 hours after DDMP removal [1, 7]: 6
- PB (%) 24-30 hours after DDMP removal [1, 8]: 27%
- number of oocytes at GV 24-30 hours after DDMP removal [1, 8]: 7
- number of oocytes at GVBD (arrested at this stage) 24-30 hours after DDMP removal [1, 8]: 1
- number of oocytes at PB 24-30 hours after DDMP removal [1, 8]: 3
- PB (%) 24-30 hours after DDMP removal [1, 9]: 100%
- number of oocytes at PB 24-30 hours after DDMP removal [1, 9]: 10
- PB (%) 24-30 hours after DDMP removal [1, 10]: 46%
- number of oocytes at GV 24-30 hours after DDMP removal [1, 10]: 6
- number of oocytes at GVBD (arrested at this stage) 24-30 hours after DDMP removal [1, 10]: 1
- number of oocytes at PB 24-30 hours after DDMP removal [1, 10]: 6
- resumption of meiosis after inhibitor removal ([1]; oocytes arrested with DDMP 10 μM): capable of resuming meiosis within the normal time frame
- number of oocytes presenting the M II plate 24-30 hours after inhibitor removal ([2]; 3 out of 3 pre-hCG and 9 out of 11 post-hCG): Twelve
- number of oocytes with nuclei forming a clump of chromosomes at place of metaphase plate ([2]; 24-30 hours after inhibitor removal): Two
- M II oocytes with well-aligned chromosomes positioned perpendicular to the oolema ([2]; 24-30 hours after inhibitor removal, control 80.0%): 83.3%
- reversibility of blocking effects [3]: fully reversible
- influence on expansion and mucification pattern of COC / loss of coupling between somatic cells and oocyte ([4]; DDMP 10 μM versus control medium, before and during culture): not modified; also recorded: no influence
- proportion of COCs classified type I ([4]; post-hCG COCs of the DDMP group, at retrieval (0 hour, baseline)): 48.8%
- oocytes that had lost connection with cumulus cells (type IV) [4, 11]: 7.1%
- proportion of COCs classified type I [4, 11]: 4.7%
- proportion of COCs classified type II [4, 11]: 57.1%
- proportion of COCs classified type III [4, 11]: 30.9%
- oocytes that had lost connections with the somatic cells (type IV) ([4]; post-hCG COCs, 48 hours culture in DDMP 10 μM): 62.1%
- proportion of COCs classified type I ([4]; pre-hCG COCs of the DDMP group, at retrieval (0 hour, baseline)): 74.4%
- proportion of COCs classified type I [4, 12]: 25.6%
- proportion of COCs classified type II [4, 12]: 56.4%
- proportion of COCs classified type III [4, 12]: 15.4%
- oocytes that had lost their connections with the cumulus cells (type IV) ([4]; pre-hCG COCs, 48 hours culture in DDMP 10 μM): 22.2%
- time up to which nuclear arrest could be held on ([5]; DDMP 10 μM): up to 72 hours
- time for which resumption of meiosis was blocked / meiotic arrest in GV maintained ([5]; DDMP 10 μM, COCs from antral follicles): at least 48 hours
- oocytes remaining at GV-stage ([5]; post-hCG COCs (n=42), 24 hours, DDMP 10 μM, control 22.5%): 92.9%
- COCs classified type II at retrieval that remained arrested at the GV-stage ([5]; post-hCG COCs of type II at retrieval, 48 hours culture with DDMP): 77.6%
- oocytes that extruded a visible polar body (PB) ([5]; post-hCG COCs, 24 hours, DDMP 10 μM, control 10.0%): 2.4%
- oocytes at the GV-stage ([5]; post-hCG COCs, 48 hours, DDMP 10 μM, control 6.0%): 83.3%
- oocytes at GVBD ([5]; post-hCG COCs, 48 hours, DDMP 10 μM, control 12.1%): 8.3%
- oocytes at PB ([5]; post-hCG COCs, 48 hours, DDMP 10 μM, control 81.8%): 5.6%
- oocytes still arrested at the GV-stage ([5]; post-hCG, 10 out of 15): 66.6%
- oocytes remaining at GV-stage ([5]; pre-hCG COCs (n=39), 24 hours, DDMP 10 μM, control 24.3%): all oocytes remained at GV-stage
- oocytes at GVBD ([5]; pre-hCG COCs, 48 hours, DDMP 10 μM, control 12.9%): 5.5%
- oocytes remaining at GV-stage ([5]; pre-hCG COCs, 48 hours, DDMP 10 μM, control 19.3%): 88.9%
- oocytes at PB ([5]; pre-hCG COCs, 48 hours, DDMP 10 μM, control 64.5%): 2.8%
- oocytes still arrested at the GV-stage ([5]; pre-hCG, 16 out of 19): 84.2%
- ultrastructural morphological signs of oocyte degeneration ([6]; DDMP 10 μM, at least 48 hours culture): without ultrastructural morphological signs of oocyte degeneration
- morphological aspect of COC (degeneration) ([6]; arrested in vitro for 72 hours in presence of DDMP (FIG. 11)): degenerative aspect

Reference: patent publication US20080311656A1, “Meiosis arrest in oocytes in vitro” (Novo Nordisk A/S, priority 2002, published 2008)
